Measurements: patent US7091248B2, “Treatment of adrenocortical hypersecretion and tumor growth” (priority 2001, dated 2006)
Where “and” joins values, the source holds several entries; their conditions need not be identical. Identical values can stand only once. Entries after “also recorded” stand apart in the source; their conditions may differ. Like-named read-outs stand apart in the source and are kept apart here.

Experiments:
[1] = tested on: rat adrenal slices; conditions: ex vivo slice culture; cited from earlier work
[2] = tested on: normal adrenal slices; assay: Phosphorautoradiography, semi-quantification of tissue-bound radioactivity in normal adrenal slices; type: cell-based, human; conditions: for inhibition of irreversible binding in zona fasciculata/reticularis in metyrapone-exposed slices: metyrapone 50 μM, 24 h of exposure, compared with slices without metyrapone; for amount of tissue-bound radioactivity, MeSO2-[14C]DDE- versus o,p′-[14C]DDD-exposed slices: normal human adrenal slices, phosphorautoradiography
Description: Normal adrenal tissue, cortex as well as apparently unaffected medulla, was obtained from a […] MEN 2 patient operated on for an ipsilateral pheochromocytoma. Another normal adrenal was obtained from a patient operated on for a renal carcinoma. Adrenal tissue was placed in ice-cold isotonic saline solution after removal and kept on ice until embedded in 3% agarose. Precision-cut slices (200 μm) were prepared in a Krumdieck tissue slicer (Alabama Research and Development, Munford, Ala., USA) in ice-cold PBS. Slices of roughly equal size were placed in culture medium on a titanium screen holder and incubated for 24 h (after a 1 h pre-incubation). To inhibit CYP-dependent enzyme activity in the slices, incubation wells were supplemented with the CYP11B1 (11β-hydroxylase) inhibitor metyrapone (50 μM) when applicable. To stimulate ACTH-regulated enzyme activity in the slices, the synthetic ACTH-analogue tetracosactide (11 nM) was added. The labeled and unlabeled test substances (MeSO2-DDE and o,p'-DDD) were added to the fresh incubation medium, dissolved in DMSO (not exceeding 0.5% of the total volume). Control slices were cultured in medium containing DMSO only. Phosphorautoradiography: […] The radioactivity in the labeled areas of the adrenal sections was recorded by reading the imaging plate in a Phosphoimager (BAS 1500, Fuji, Japan). For semi-quantification of the tissue-bound radioactivity, a Windows-based bio-imaging analyzer program (ImageGauge, version 3.122, Fujifilm, Japan) was used. […] The values were adjusted according to the difference in specific activity of the two compounds. In order to check the imaging plates with respect to exposure linearity, the same plate was repeatedly exposed to the same sections for 7, 14, 28, 49 and 122 days, reading and erasing the plate between each exposure. […] Intra-exposure variation was measured on three adjacent sections on the same glass-slide.

[3] = tested on: cells from the human adrenal cortex; conditions: homogenate incubations, read-out: apparent Km-value; cited from earlier work
[4] = tested on: mouse adrenal slices; conditions: cited from earlier work; for irreversible binding in mouse adrenal cortex slices: ex vivo slice culture
[5] = tested on: adrenocortical carcinoma cells; assay: Autoradiography of slices from a lymphnode metastasis of an aldosterone producing adrenocortical carcinoma; type: cell-based, human
Description: Tissue from a lymphnode metastasis of an aldosterone producing adrenocortical carcinoma was obtained from a person.
(§1) Adrenal tissue was placed in ice-cold isotonic saline solution after removal and kept on ice until embedded in 3% agarose. Precision-cut slices (200 μm) were prepared in a Krumdieck tissue slicer (Alabama Research and Development, Munford, Ala., USA) in ice-cold PBS. Slices of roughly equal size were placed in culture medium on a titanium screen holder and incubated for 24 h (after a 1 h pre-incubation).
Microautoradiography: Slices were incubated with MeSO2-[^14C]DDE (2.6 μM, 35 nCi/ml) or o,p′-[^14C]DDD (3.8 μM, 60 nCi/ml) for 24 h. The labeled substances were added to the medium dissolved in DMSO. Following incubation, slices were fixed overnight in buffered formaldehyde (4%). The fixed slices were dehydrated, embedded in methacrylate, sectioned, and dipped in liquid NTB2 film emulsion, as described elsewhere (4). Autoradiograms were exposed (4° C.) for one year to enable localization of irreversible binding in metyrapone-treated slices. Autoradiograms were developed, stained, and examined as previously described (4).

[6] = tested on: adrenocortical carcinoma; conditions: cited from earlier work
[7] = tested on: adrenal slices; assay: Steroid hormone secretion from adrenal slices into culture medium (HPLC); type: cell-based, human; conditions: 25 μM
Description: as §1
(§2) To inhibit CYP-dependent enzyme activity in the slices, incubation wells were supplemented with the CYP11B1 (11β-hydroxylase) inhibitor metyrapone (50 μM) when applicable. To stimulate ACTH-regulated enzyme activity in the slices, the synthetic ACTH-analogue tetracosactide (11 nM) was added. The labeled and unlabeled test substances (MeSO2-DDE and o,p′-DDD) were added to the fresh incubation medium, dissolved in DMSO (not exceeding 0.5% of the total volume). Control slices were cultured in medium containing DMSO only.
Cortisol, 11-deoxycortisol, corticosterone, 11-deoxycorticosterone, aldosterone, androstenedione and 17-OH-progesterone concentrations in the medium were measured with HPLC using UV detection (241 nm), as described previously (4). The steroid products were separated using a linear gradient of 18–80% acetonitrile (1 ml/min), obtained by diluting acetonitrile/tetrahydrofuran (90/10 vol %) with methanol/water (40/60 vol %), for 32 min. The amounts of steroids were expressed as nmol/slice. The detection level of cortisol/corticosterone was 5 pmol/ml medium. To adjust for differences in slice size, the steroids were expressed as a percentage of the amount of cortisol from the same slice.

[8] = tested on: normal adrenal slices; assay: Microautoradiography of irreversible binding in precision-cut normal adrenal slice culture; type: cell-based; conditions: normal human adrenal slices, 24 h; MeSO2-[14C]DDE 2.6 μM, o,p′-[14C]DDD 3.8 μM
Description: Normal adrenal tissue, cortex as well as apparently unaffected medulla, was obtained from a […] MEN 2 patient operated on for an ipsilateral pheochromocytoma. Another normal adrenal was obtained from a patient operated on for a renal carcinoma.
as §1, §2
Microautoradiography: Slices were incubated with MeSO2-[^14C]DDE (2.6 μM, 35 nCi/ml) or o,p′-[^14C]DDD (3.8 μM, 60 nCi/ml) for 24 h. The labeled substances were added to the medium dissolved in DMSO. […]

[9] = target: T1, CYP 11B1 (Homo sapiens, UniProt P15538); parameters: expressed in transfected cells; host or cells: V79 hamster cells; conditions: 5 μM; V79 hamster cells transfected with human CYP11B1 DNA; cited from earlier work
T1 sequence (P15538 25-503): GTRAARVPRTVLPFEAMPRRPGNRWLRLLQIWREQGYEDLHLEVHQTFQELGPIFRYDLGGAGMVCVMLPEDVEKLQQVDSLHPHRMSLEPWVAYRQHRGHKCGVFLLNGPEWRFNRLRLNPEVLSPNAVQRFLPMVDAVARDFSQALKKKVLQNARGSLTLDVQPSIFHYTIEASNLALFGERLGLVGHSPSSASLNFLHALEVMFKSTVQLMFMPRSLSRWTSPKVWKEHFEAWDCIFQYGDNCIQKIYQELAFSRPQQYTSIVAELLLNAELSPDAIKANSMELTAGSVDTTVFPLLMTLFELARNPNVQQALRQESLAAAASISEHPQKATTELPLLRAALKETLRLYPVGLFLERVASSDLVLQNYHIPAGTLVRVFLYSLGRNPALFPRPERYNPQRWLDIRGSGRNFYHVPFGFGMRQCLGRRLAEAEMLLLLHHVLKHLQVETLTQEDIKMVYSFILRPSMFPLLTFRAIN

[10] = tested on: mouse adrenal zona fasciculata cells; conditions: cited from earlier work
[11] = target: T1, CYP 11B1; parameters: endogenous in cells; host or cells: H295R human adrenocortical carcinoma cell line; conditions: 10 μM; H295R cells; cited from earlier work
[12] = tested on: bilateral non-functioning adrenocortical hyperplasia; assay: Bound radioactivity in slices from a bilateral non-functioning adrenocortical hyperplasia; type: cell-based, human
Description: Tissue from a bilateral non-functioning adrenocortical hyperplasia was obtained from a person.
as §1
To inhibit CYP-dependent enzyme activity in the slices, incubation wells were supplemented with the CYP11B1 (11β-hydroxylase) inhibitor metyrapone (50 μM) when applicable. […]
Phosphorautoradiography: Semi-quantification of tissue-bound radioactivity was accomplished by apposing tissue sections to imaging plates (BAS-IP MP 2040S Fuji, Japan) for 49 days. The radioactivity in the labeled areas of the adrenal sections was recorded by reading the imaging plate in a Phosphoimager (BAS 1500, Fuji, Japan). For semi-quantification of the tissue-bound radioactivity, a Windows-based bio-imaging analyzer program (ImageGauge, version 3.122, Fujifilm, Japan) was used.
In order to correlate tissue-bound radioactivity and metabolically active regions in the incubated slices, the labeled areas of the images were marked selectively at 1 pixel resolution (1 pixel=100 μm). […]

Row | SMILES | irreversible binding in rat adrenal slices [1] | inhibition of irreversible binding in zona fasciculata/reticularis in metyrapone-exposed slices [2] | amount of tissue-bound radioactivity, MeSO2-[14C]DDE- versus o,p′-[14C]DDD-exposed slices [2] | Km [3] [µM] | irreversible binding in mouse adrenal cortex slices [4] | binding to adrenocortical carcinoma cells [5] | cortisol or corticosterone secretion compared with control slices [7] | effect on steroid secretion compared with control [7] | labeling of adrenal zones in autoradiograms (irreversible binding) [8] | further results
1 | Clc1ccc(C(c2ccccc2Cl)C(Cl)Cl)cc1 (stereo not drawn) [o,p′-DDD, 1-(2-chlorophenyl)-1-(4-chlorophenyl)-2,2-dichloroethane] | negligable irreversible binding | 32% | no significant difference | 24 | negligable irreversible binding | selective binding | no significant difference | did not produce any visible effect | high and selective labeling of zona fasciculata and zona reticularis; also recorded: localized in a similar way | irreversible binding in mouse adrenal cortex slices ([4]; listed as o,p′-[^14C]DDD): very weak; patients not cured by surgery who responded to treatment ([6]; adrenocortical carcinoma patients): 194 out of 551; side effects ([6]; patients, therapeutic doses): dose-dependent side effects in the gastrointestinal tract (nausea, vomiting and diarrhea) and CNS (dizziness and headaches); therapeutically insufficient plasma concentrations ([6]; patients): below 10 μg/ml and < 31 μM
2 | CC(C)(C(=O)c1cccnc1)c1cccnc1 [metyrapone] |  |  |  |  |  |  |  |  |  | block of synthesis of cortisol from 11-deoxycortisol [9]: 86%; effect of metyrapone on irreversible MeSO2-[14C]DDE-binding and corticosterone secretion ([4]; mouse adrenal slice culture and mouse adrenal homogenate): inhibits; effect of metyrapone on irreversible protein binding and toxicity of MeSO2-DDE in the adrenal zona fasciculata ([10]; mouse, in vivo): effectively blocked
3 | CS(=O)(=O)c1cc(C(=C(Cl)Cl)c2ccc(Cl)cc2)ccc1Cl [MeSO2-DDE, 1-(4-Chloro-3-methylsulphonylphenyl)-1-(4-chlorophenyl)-2,2-dichloroethene] | very weak binding | below the detection limit | no significant difference | 1.4 | strong irreversible binding | irreversibly bound | no significant difference | increased accumulation of 11-deoxycorticosterone, 11-deoxycortisol and androstenedione | high and selective labeling of zona fasciculata and zona reticularis; also recorded: confined to both zona fasciculata and zona reticularis | effect on CYP 11B1 enzyme activity [11]: inhibit CYP 11B1 enzyme activity; irreversible binding in nonfunctional adrenocortical hyperplasia [12]: irreversibly bound; binding to adrenocortical carcinoma cells ([5]; listed as MeSO2-[^14C]DDE): selective binding; 11-deoxycortisol in the culture medium [7]: detectable only in the culture medium of MeSO2-DDE-exposed slices; 11-deoxycorticosterone secretion to the medium ([7]; compared with o,p′-DDD exposed slices and control slices): significant increase; androstenedione secretion ([7]; compared with o,p′-DDD-exposed slices): increased; plasma corticosterone levels ([10]; mice, following exposure): reduced plasma corticosterone levels; irreversible binding to cellular macromolecules in vivo ([10]; mouse adrenal zona fasciculata cells): cell-specific irreversible binding
